Experimental data from patent US11197868B2, “Prevention of preterm birth (PTB) by inhibition of FKBP51” (UNIVERSITY OF SOUTH FLORIDA, priority 2017, dated 2021).

Tested on: FKBP51
Experiment: FKBP51 protein expression in primary term decidual cell cultures by immunoblotting
Format: cell-based
Details: 24 hours
Method: This example describes an analysis of FKBP51 expression in primary term decidual cells (DCs) induced by dexamethasone (DEX) (0.1 μM) or 15dPGJ2 (5 or 20 μM) or DEX+15dPGJ2 (0.1 μM+5 or +20 μM).
Glucocorticoids (e.g. dexamethasone (DEX), medroxyprogesterone acetate) are primary inducers of FKBP51 mRNA and protein expression in decidual cells (DCs). It was determined that both restrained stress-induced preterm birth and fetal growth restriction are blocked in FKBP51 knockout mice compared to WT mice. To determine the potential therapeutic impact of 15-deoxy-Δ12,14-prostaglandin J2 (15dPGJ2) on regulation of dexamethasone-induced FKBP51, primary term DC cultures (n=1) were induced by DEX (0.1 μM), 15dPGJ2 (5 or 20 μM), or DEX+15dPGJ2 (0.1 μM+5 or +20 μM) for 24 hours, and FKBP51 protein levels were then analyzed by immunoblotting, as shown in FIG. 15A.

Compound | decrease of FKBP51 expression compared to control (5 μm 15dPGJ2 alone, term DC cultures (n=1)) [%] | reduction of DEX-induced FKBP51 expression (5 μm 15dPGJ2 combined with DEX 0.1 μM, term DC cultures (n=1)) [%] | decrease of FKBP51 expression compared to control (20 μm 15dPGJ2 alone, term DC cultures (n=1)) [%] | effect on DEX-induced FKBP51 expression (20 μm 15dPGJ2 combined with DEX 0.1 μM, term DC cultures (n=1)) | increase of FKBP51 expression compared to control (DEX 0.1 μM alone, primary term DC cultures (n=1)) [%]
CCCCC/C=C/C=C1/C(=O)C=C[C@@H]1C/C=C\CCCC(=O)O [15dPGJ2, 15-deoxy-Δ12,14-prostaglandin J2] | 10 | 12 | 18 | completely blocking DEX-induced FKBP51 expression | –
C[C@@H]1C[C@H]2[C@@H]3CCC4=CC(=O)C=C[C@]4(C)[C@@]3(F)[C@@H](O)C[C@]2(C)[C@@]1(O)C(=O)CO [DEX, dexamethasone] | – | – | – | – | 60
